Assay results from patent US20220152015A1, “NEDOCROMIL SODIUM TO PREVENT, LIMIT ONSET, AND /OR TREAT PANCREATIC CANCER” (priority 2020, published 2022).

How the values were obtained:
[1] = biological target: T1, human GPR35 (Homo sapiens, UniProt Q9HC97); test: PathHunter human GPR35a-β-arrestin-2 interaction assay in CHO-K1 cells; assay type: cell-based
T1 construct: expressed in transfected cells; host or cells: CHO-K1

[2] = test system: ion channels present in the intestinal cell line HT29; test: Whole-cell patch-clamp recordings of ion channels; assay type: cell-based; settings: HT29 cells
Excerpt: Summary—Whole-cell patch-clamp recordings were used to test the effects of The Compound on ion channels.

[3] = test system: K-ras^G12Dp53^−/− tumors; test: Surgically implanted PDAC tumors in tumor-bearing C57BL/6 mice; assay type: in vivo
Experimental: (§1) To determine whether targeting mast cell function has a therapeutic effect in PDAC, we injected tumor-bearing C57BL/6 mice Nedocromil sodium, a mast cell stabilizer. […] Tumor measurement was performed at the end time point (day 50) after treatment. […] Similarly, mast cell degranulation in the tumor microenvironment was inhibited in the nedocromil sodium-treated group compared with in the saline-treated control group.

[4] = test system: Panc-02 tumor cells; test: Panc-02 tumor growth in mice; assay type: in vivo; settings: treated mice vs. saline control at day 21 after treatment, P<0.001
Excerpt: as §1, with “Tumor measurement was performed at the end time point (day 50) after treatment.” left out

[5] = test system: cancerous tumor; test: Dog tumor case, topical application; assay type: in vivo
Experimental: Summary—A female dog was given the diagnosis of a cancerous tumor (without confirmatory histology due to lack of ability to aspirate the tumor due to the hardness of the mass) in June of 2020. At the time of diagnosis the tumor located on […] right shoulder was measured at 2 inches by 2 inches with a depth of 0.5 inches. Other than supportive care (ketogenic diet to delay tumor progression, and gabapentin for neuropathic pain) no treatment was provided by the owners, as the cost and lack of clear benefit to conventional therapy (biopsy, chemotherapy, and eventual resection) was not deemed to be appropriate for this dog. […] On December 23rd, 2020 the first application of Nedocromil sodium compound was administered to the dog via the topical route. The dog's tumor area was shaved to improve the absorption of the compound into the skin. On Jul. 16, 2021 (tumor size of 1.5×1×0.5 inches), a second application of Nedocromil Sodium was applied using the same dosing strategy in attempt to eradicate the tumor entirely.

[6] = test system: stage 4 transit metastatic melanoma; test: Transit metastasis melanoma case study, topical application
Experimental: Person with stage 4 transit metastatic melanoma with 30 melanomas on the body. Using chemotherapy infusions every 3 weeks since 2019. For 2 weeks used topical Nedocromil sodium with one dose per tumor (30) per week. […] In modern medicine the goal is to shrink a tumor, but the tumor never resolves. […] The patient was treated with Nedocromil Sodium on all 30 tumors in one sitting.

T1 sequence (Q9HC97 whole entry): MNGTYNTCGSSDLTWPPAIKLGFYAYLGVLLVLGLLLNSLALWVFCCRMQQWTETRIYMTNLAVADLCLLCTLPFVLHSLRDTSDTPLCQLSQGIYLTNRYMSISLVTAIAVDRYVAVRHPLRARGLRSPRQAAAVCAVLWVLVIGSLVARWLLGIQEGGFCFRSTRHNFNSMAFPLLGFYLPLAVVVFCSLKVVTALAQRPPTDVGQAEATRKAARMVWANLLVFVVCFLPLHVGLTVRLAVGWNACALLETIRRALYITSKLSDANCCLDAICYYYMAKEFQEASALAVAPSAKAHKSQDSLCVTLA

With `CCCc1c2oc(C(=O)[O-])cc(=O)c2cc2c(=O)cc(C(=O)[O-])n(CC)c12.[Na+].[Na+]` [Nedocromil Sodium, 4H-Pyrano[3,2-g]quinoline-2,8-dicarboxylic acid, 9-ethyl-6,9-dihydro-4,6-dioxo-10-propyl-, disodium salt] the EC50 ([1]; CHO-K1 cell line stably expressing human GPR35 and β-arrestin) was 2980 ± 1270 nM, the “agonism of GPR 35” value ([1]; PathHunter β-arrestin-2 interaction assay) was “potent full agonist” and the “dose dependence of ion channel block” value [2] was “dose-dependent manner”. The “mast cell degranulation in the tumor microenvironment” value ([3]; compared with saline-treated control group) was “inhibited”, the mean tumor size ([3]; end time point (day 50) after treatment, saline group 31.3) was 5.2 mm^3 and the tumor growth ([3]; treated mice vs. saline control at day 42 after treatment, P<0.001) was “significantly suppressed”. For the same compound, the tumor growth [4] was “significantly suppressed”, the tumor change ([5]; 8 week mark after second topical application) was “no tumor was able to be felt” and the tumor change ([5]; roughly 6 weeks after second topical application) was “noticeably smaller”. The “number of tumors dissolved” value ([6]; after 2nd topical treatment) was 17 OF THE 30 TUMORS, the tumor change ([6]; after one topical treatment, 30 tumors) was “the tumors have flattened” and the side effects ([6]; all 30 tumors treated in one sitting) was “no side effects”.
